Data on four compounds can be found in patent US9399631B2, “Polyphenol proteasome inhibitors, synthesis, and methods of use” (UNIVERSITY OF SOUTH FLORIDA, priority 2003, dated 2016).

The test system of experiment [1] is NK cells (YT cell line). Briefly: Western blot of proteasome target proteins in non-transformed NK cells (YT line). The experiment is classed as cell-based, human. Particulars: treatment up to 12 hour. The protocol:
Cell Culture, Cell Extract Preparation, and Western Blot Assay. Human leukemia Jurkat T and prostate cancer LNCaP cells were cultured in RPMI 1640 medium supplemented with 10% fetal calf serum, 100 units/ml of penicillin, and 100 μg/ml streptomycin. Human immortalized, non-transformed NK cells (YT cell line) (38) were cultured in RPMI 1640 supplemented with 1 mM MEM sodium pyruvate solution, 0.1 mM MEM non-essential amino acids solution, 10% fetal calf serum. 100 units/ml penicillin, and 100 μg/ml streptomycin. Normal (WI-38) and simian virus 40 (SV40)-transformed (VA-13) human fibroblasts were grown in Dulbecco's modified Eagle's medium supplemented with 10% fetal calf serum, 100 units/ml of penicillin and 100 μg/ml of streptomycin. All cells were maintained at 37° C. in a humidified incubator with an atmosphere of 5% CO2. A whole cell extract was prepared in accordance with An et al. (An, B. et al. Cell Death Differ, 1998, 5:1062-75). Briefly, cells were harvested, washed with PBS twice, and homogenized in a lysis buffer [50 mM Tris-HCl (pH 8.0), 5 mM EDTA, 150 mM NaCl, 0.5% NP-40, 0.5 mM phenylmethylsulfonyl fluoride, and 0.5 mM dithiothreitol] for 30 min at 4° C. Afterwards, lysates were centrifuged at 12,000×g for 15 min at 4° C., and the supernatants were collected as whole cell extracts. Equal amounts of protein extract (60 μg) were resolved by SDS-polyacrylamide gel electrophoresis and transferred to a nitrocellulose membrane using a Semi-Dry Transfer system (BIO-RAD, Hercules, Calif.). Jurkat T, LNCaP, or DU-145 cells were treated with various concentrations of synthetic or natural tea polyphenols for indicted hours. The enhanced chemiluminescence (ECL) Western blot analysis was then performed using specific antibodies to the proteins of interest (p^27kip, IκB-α, PARP, Bax or actin). The ratio of p27 or IκB-α to the corresponding actin was determined by scanning intensities of the protein bands. […]
(Immunoblotting shows a protein as a band on a membrane.)

The subject of experiment [2] is DU145 cells. Description: Western blot of Bax and PARP in DU145 cells. Particulars: 10 μM, 24 hours. Type of experiment: cell-based, human. The protocol:
Cell Culture, Cell Extract Preparation, and Western Blot Assay. Human leukemia Jurkat T and prostate cancer LNCaP cells were cultured in RPMI 1640 medium supplemented with 10% fetal calf serum, 100 units/ml of penicillin, and 100 μg/ml streptomycin. Human immortalized, non-transformed NK cells (YT cell line) (38) were cultured in RPMI 1640 supplemented with 1 mM MEM sodium pyruvate solution, 0.1 mM MEM non-essential amino acids solution, 10% fetal calf serum. 100 units/ml penicillin, and 100 μg/ml streptomycin. Normal (WI-38) and simian virus 40 (SV40)-transformed (VA-13) human fibroblasts were grown in Dulbecco's modified Eagle's medium supplemented with 10% fetal calf serum, 100 units/ml of penicillin and 100 μg/ml of streptomycin. All cells were maintained at 37° C. in a humidified incubator with an atmosphere of 5% CO2. A whole cell extract was prepared in accordance with An et al. (An, B. et al. Cell Death Differ, 1998, 5:1062-75). […] The ratio of p27 or IκB-α to the corresponding actin was determined by scanning intensities of the protein bands.
Exponentially growing LNCaP and DU-145 prostate cells were harvested and the levels of Bax protein was detected by Western blot analysis (FIG. 20A). […]

Experiment [3] concerns LNCaP cells. Briefly: Soft agar colony formation assay. Type of experiment: cell-based, human. The conditions noted are these: 10 μM, 14 day-incubation. The essentials:
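2×10^4 human prostate cancer cells seeded in 0.3% top agar over a 0.6% agar layer (DMEM, 10% FBS) together with analogs at 50 μM or 10 μM, or solvent control. Incubated 14 days at 37 °C, 5% CO2, then stained overnight with MTT (1 mg/ml). Colonies counted; means of triplicate independent experiments ± SD.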

Experiment [4] has as its system 26S proteasome in a Jurkat cell lysate. Briefly: Chymotrypsin-like activity of 26S proteasome in Jurkat cell lysate. Type of experiment: biochemical, human. Particulars: 10 μM. The protocol: To determine the specificity of the synthetic GTP analogs, their effects were tested on the chymotrypsin-like and trypsin-like activities of the 26S proteasome in a Jurkat cell lysate. […] (+)-GCG at the same concentration inhibited ˜50% of the chymotrypsin-like activity. The potencies of (+)-EGCG and (+)-GCG were similar to those of their natural partners, respectively (FIG. 17A). […] Furthermore, none of the synthetic or control natural compounds could inhibit more than 15% of activity of a purified calpain enzyme (FIG. 17C). […] Values are mean triplicates and error bars denote standard deviations.

The target of experiment [5] is purified 20S proteasome (UniProt Q9P992). Description: Inhibition of chymotrypsin-like activity of purified 20S proteasome (source not stated). The experiment is classed as biochemical. On the set-up: IC50; other: purified 20S proteasome, multiple concentrations. The conditions noted are these: purified 20S proteasome, multiple concentrations. How it is done: Inhibition of purified 20S proteasome activity by natural or synthetic GTPs. Purified prokaryotic (0.5 μg) or eukaryotic (0.02 μg) 20S proteasome was incubated with 20 μM fluorogenic peptide substrate, Suc-Leu-Leu-Val-Tyr-AMC for 30 min at 37° C. in […] of assay buffer (50 mM Tris-HCl, pH 7.5), with or without a natural or synthetic tea polyphenol. After incubation, production of hydrolyzed 7-amido-4-methyl-coumarin (AMC) groups was measured using a multi-well plate VERSAFLUOR Fluorometer with an excitation filter of 380 nm and an emission filter of 460 nm (BIO-RAD), and a multi-well plate reader Wallac 1420 VICTORTM^2 with an excitation filter of 355 nm and an emission filter of 460 nm (EG&G WALLAC).

Like-named read-outs stand apart in the source and are kept apart here.

In general, inhibition refers to the percentage by which the read-out fell short of the control. As usually defined, the IC50 is the concentration that inhibits the measured activity by half.

Sequence of purified 20S proteasome (Q9P992 whole entry): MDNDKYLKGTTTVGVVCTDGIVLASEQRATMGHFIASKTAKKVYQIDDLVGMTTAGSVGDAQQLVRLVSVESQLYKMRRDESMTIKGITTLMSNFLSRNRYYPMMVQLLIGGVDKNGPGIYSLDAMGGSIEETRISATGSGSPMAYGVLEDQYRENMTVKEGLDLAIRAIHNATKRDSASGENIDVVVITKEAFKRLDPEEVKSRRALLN

For the compound `O=C(O[C@@H]1Cc2c(O)cc(O)cc2O[C@@H]1c1cc(O)c(O)c(O)c1)c1cc(O)c(O)c(O)c1` [(−)-EGCG, (−)-epigallocatechin-3-gallate, reference compound], in experiment [1], the IκB-α expression entry was “unchanged” and the p27 expression entry was “no p27 expression was detected”. For the same compound, in experiment [2], the Bax protein levels result is listed as “neither (+)-EGCG nor (−)-EGCG was able to increase the levels of Bax protein”. The “inhibition of colony formation” value in experiment [3] was determined as 99.0%.

On to `O=C(N[C@@H]1Cc2c(O)cc(O)cc2O[C@@H]1c1cc(O)c(O)c(O)c1)c1cc(O)c(O)c(O)c1` [(−)-EGCG-amide, (−)-[2R,3R]-N-[5,7-Dihydroxy-2-(3,4,5-trihydroxyphenyl)-chroman-3-yl]-3,4,5-trihydroxybenzamide], for which the IκB-α expression entry in experiment [1] was “unchanged”.

For `O=C(OC1Cc2c(O)cc(O)cc2OC1c1cc(O)c(O)c(O)c1)c1cc(O)c(O)c(O)c1` (single isomer, unassigned; (+)) [(+)-GCG], the inhibition at 10 µM in experiment [3] (Homo sapiens, LNCaP, 336 h) is 91.5%. Further, in experiment [4], the “inhibition of chymotrypsin-like activity of 26S proteasome” value is reported as about 50%. 0.41 µM corresponded to half-maximal inhibition in experiment [5] (IC50).

For the compound `O=C(OC1Cc2c(O)cc(O)cc2OC1c1cc(O)c(O)c(O)c1)c1cc(O)c(O)c(O)c1` (single isomer, unassigned; (+)) [(+)-EGCG], the Bax protein levels entry in experiment [2] was “neither (+)-EGCG nor (−)-EGCG was able to increase the levels of Bax protein”. In addition, the “inhibition of colony formation” value in experiment [3] was determined as 99.5%. Besides, the “inhibition of chymotrypsin-like activity of 26S proteasome” value in experiment [4] is listed as 76%. The IC50 in experiment [5] (read-out: IC50) turned out to be 0.21 µM.
